Reference: patent US20240399175A1, “REVERSAL OF SENESCENCE BY ULTRASOUND IRRADIATION” (Board of Regents, The University of Texas System, priority 2021, published 2024)

Test system: Vero cells
Assay: Senescence induction in Vero cells by chemical stressors (growth, cell size)
Format: cell-based, African monkey
Settings: for cell growth of stressor-treated cells: 200 μM H2O2, 4 μM sodium butyrate, 25 μM Bleomycin Sulphate for 36-48 hours, growth over 48 h
Protocol: To test the generality of any senescent treatment, the inventors used four different methods to cause Vero cell senescence, replicative, hydrogen peroxide, sodium butyrate and Bleomycin sulfate. Senescence was measured as a decreased growth rate, increased O-gal activity, increased cell size, and secretion of pro-inflammatory factors called SASP. All four criteria were met with each type of senescent cells (FIGS. 1A to 1G). […] (FIG. 1B). There were significant differences in the size of the senescent cells with bleomycin sulfate-treated cells being the largest and replicative senescent cells the smallest (FIGS. 1C and 1D). To assay for SASP activity, the inventors cultured the senescent cells overnight and collected the supernatant from each dish. Supernatants were diluted 1:1 with fresh media and added to normal control cells. The change in normal cell number was measured after a 48 hour incubation. […] When β-galactosidase levels were measured by antibody staining, there was a relatively uniform increase in levels (FIGS. 1F and 1G). Thus, by all four criteria, the four different types of senescent cells were indeed senescent.
Senescence induction and quantification. Vero cells were treated with various stressors including 200 μM H2O2, 4 μM of sodium butyrate (SB), and 25 μM of Bleomycin Sulphate (BS) and incubated for 36-48 hours. After washing with PBS and then replacing growth medium with fresh medium, cells were incubated for 4 days to confirm the growth arrest of senescent cells. […] The inventors used four criteria to determine if cells were senescent; (1) Cell cycle arrest by determining the growth rate, (2) Increase in cell spread area, (3) Development of senescence associated secretory phonotype (SASP) in culture medium, and (4) beta-gal staining. The inventors captured images of cells with an Evos microscope at 10× magnification after treatment and 48 hours post treatment. To measure growth by the increase in cell number, 15 random images were captured, then the average number of cells were determined, which was divided by the area of one frame to get the cell density (cells/cm^2). Then this seeding density was multiplied by the total area of the dish or well to obtain the total number of cells after US treatment and after 48 hours if incubation. The total number of cells at 48 hours was divided by the total number of cells just after the treatment to determine the growth rate. If the ratio was one, there was no growth.
Senescence was detected by the beta-gal senescence staining kit as per manufacturer's protocol. […] The percentages of beta-gal positive cells were determined by counting the number of blue cells and dividing by the total number of cells. Cell spread area was determined by capturing the mages of cells with a 10× objective using an Evos microscope. […]

| Compound | cell growth of stressor-treated cells | size of the senescent cells (comparison among types of senescent cells) |
| --- | --- | --- |
| OO [hydrogen peroxide] | cell growth was effectively blocked | – |
| CCCC(=O)[O-].[Na+] [sodium butyrate] | cell growth was effectively blocked | – |
| Bleomycin sulfate | cell growth was effectively blocked | largest |
